Experiments:
[1] = tested on: HEPG2 cells; test: CellTiter-Glo cell viability assay (MIC2-based PAX); conditions: EGFR-negative HEPG2, complexes at 50% loading
Method: 2000 cells per well were seeded into white-opaque 384-well plates followed by overnight incubation in a humid chamber at 37° C. and 5% CO2. Complexation was performed as described in chapter 7.4.
(§1) The solutions were added to the cells based on the antibody concentration using Tecan D300e dispenser and all wells were normalized to the same volume using 0.3% TW20 in PBS pH 7.4 and DMSO. The assay was developed after 3 days if not otherwise stated using CellTiter-Glo Luminescent Cell Viability Assay as described in the manufacturer's protocol. In brief, the plates were equilibrated to room temperature for 30 minutes. 100 mL CellTiter-Glo Buffer were added to the CellTiter-Glo Substrate Flask and mixed well. 30 μL of the reagent was transferred to each well. After incubation for 3 minutes at room temperature while shaking at 550 rpm, the plate was incubated for another 10 minutes at room temperature. The luminescence was read on an Envision reader. The evaluation was performed using GraphPad Prism 8 by normalization of cells treated with sample to untreated cells. The data were fitted with 4 point logistic curve to determine the IC50 value.

[2] = tested on: MV411 cells; test: CellTiter-Glo cell viability assay (VHH-based PAX); design: species or system human; conditions: MV411, PROTAC alone
Method: Several cell viability experiments were performed following the procedure described below: Cells were seeded in different media into white cell culture-treated flat and clear bottom multiwell plates followed by overnight incubation in a humid chamber at 37° C. and 5% CO2. Complexation was performed as described in chapter 7.4.
The solutions were added to the cells based on the antibody concentration using nanodrop dispension using a Tecan D300e Digital Dispenser and all wells were normalized to the same volume using 0.3% TW20 in PBS pH 7.4 and DMSO to a final solvent concentration of 0.05% DMSO and 0.003% TW20. Incubation was performed at 37° C. at 5% or 10% CO2 dependent on the medium. The assay was developed after 3 days if not otherwise stated using CellTiter-Glo Luminescent Cell Viability Assay as described in the manufacturer's protocol. In brief, the plates were equilibrated to room temperature for 30 minutes. 100 mL CellTiter-Glo Buffer were added to the CellTiter-Glo Substrate Flask and mixed well. 30 μL of the reagent was transferred to each well. After incubation for 3 minutes at room temperature while shaking at 550 rpm, the plate was incubated for another 10 minutes at room temperature. The luminescence was read on an Envision reader from Perkin Elmer. […]

[3] = tested on: MDAMB468 cells; test: CellTiter-Glo cell viability assay (MIC2-based PAX); conditions: MDAMB468, complexes at 50% (1:1) loading, three independent experiments
Method: as §1, with “2000 cells per well” for “The solutions”, “seeded into white-opaque 384-well plates followed by overnight incubation in a humid chamber at 37° C.” for “added to the cells based on the antibody concentration using Tecan D300e dispenser”, “5% CO2. […]” for “all wells were normalized to the same volume using 0.3% TW20 in PBS pH 7.4 and DMSO.”

[4] = tested on: MV411 xenograft; test: MV411 xenograft efficacy study in female CB17 SCID mice; type: in vivo, mouse
Method: Human leukemic MV411 cells were xenografted in immunocompromised mice. Three million MV411 cells were injected subcutaneously in the left flank of untreated female CB17 SCID mice. Randomization of the animals in the different treatment groups and the initiation of the treatment was started after the average tumor size reached 45 mm^2. The control groups were treated with vehicle. The test groups were treated with 0.38 mg/kg GNE987 and 30 mg/kg CD33xMIC7+GNE987 (loaded with 0.38 mg/kg GNE987) once (at day 1). Further, two groups were treated twice, either with 30 mg/kg CD33xMIC7+GNE987 (loaded with 0.38 mg/kg GNE987) at day 1 followed by treatment with 0.38 mg/kg GNE987 at day 8 or with 0.38 mg/kg GNE987 at day 1 and 8. Additionally, one group received 30 mg/kg CD33xMIC5+GNE987 (loaded with 0.38 mg/kg GNE987) once (at day 1) and another group received the antibody control 30 mg/kg CD33xMIC7 without PROTAC once (at day 1). The individual groups were stopped before tumors reached a maximum tumor size (225 mm^2) (FIG. 49).

[5] = molecular target: BRD4 (Homo sapiens, UniProt O60885); test: BRD4 degradation, immunofluorescence imaging in MDA-MB-468 cells; type: cell-based; design: endogenous in cells; host or cells: MDA-MB-468; conditions: 4 nM, 43 h, relative to untreated cells
Method: BRD4 was chosen as the model protein for the disclosed invention due to the strong pharmacological effect (cell death) that is induced upon degradation of BRD4. For the evaluation of targeted BRD4 degradation, MDA-MB-468 cells were seeded into a black 96 well clear bottom plates (10,000 cells/well) followed by incubation (37° C., 5% CO2) in a humid chamber overnight. Test compounds were added using a D300e digital dispenser (Tecan) and incubated for 43 h (37° C., 5% CO2, humid chamber). Cells were washed 3× with PBS, fixed in 2% (v/V) formaldehyde for 15 min at rt and washed again (3×). To permeabilize cells, 0.2% (v/V) Triton-X-100 was added for 10 min at rt and removed by washing with PBS (3×). Wells were blocked with 3% (w/v) BSA in PBS for 60 min at rt, washed trice, and cells were incubated with 2.3 μg/mL rabbit anti-BRD4 antibody (Abcam) diluted in 3% BSA/PBS for […] at 4° C. overnight. […] After a final washing step, cells were preserved in 0.1% (w/V) sodium azide and transferred to a Cytation 5 cell imaging reader (Biotek). […] For quantitative analysis of nuclear BRD4 levels, only the green fluorescence (AF488) co-localized with DAPI staining was counted. Green fluorescence was normalized to cell number and expressed relative to untreated cells.

Question: Which IC50 [1] does the source give for `Cc1ncsc1-c1ccc(CNC(=O)[C@@H]2C[C@@H](O)CN2C(=O)[C@@H](NC(=O)CCCCCCCCCCNC(=O)c2cc3c(cc2CS(C)(=O)=O)-c2cn(C)c(=O)c4[nH]cc(c24)CN3c2ncc(F)cc2F)C(C)(C)C)cc1` [GNE987] here?
Answer: Its IC50 is 3.1 nM.

Question: And the IC50 [2]?
Answer: Its IC50 is less than 0.045 nM.

Question: What about the IC50 [3] of the same compound?
Answer: The IC50 was 0.79 nM.

Question: And the “day post re-dosing where tumors started to grow again” value ([4]; 0.38 mg/kg GNE987 at day 1 and 8)?
Answer: Its value is roughly 3 days.

Question: What about the “anti-tumor effect (in words)” value ([4]; dosed once at day 1) of the same compound?
Answer: The value was “induced anti-tumor effects”.

Question: What about the “day until which tumor growth was inhibited / tumors started to progress” value ([4]; single dose at day 1 (0.38 mg/kg GNE987 or 30 mg/kg PAX)) of the same compound?
Answer: The value was roughly 4 days.

Question: What about the “remaining BRD4” value [5] of the same compound?
Answer: Its value is 39.0%.
